One data set relates to RGCs in WT retina. Description: YO-PRO-1 loading assay (dye permeability of RGCs) in WT retina after intravitreal injection. The class given is in vivo, mouse. On the procedure: (§1) Intravitreal Injections. Before injection, mice were anesthetized with isoflurane (2%) and their pupils were dilated with tropicamide (1%) and phenylephrine (2.5%). Proparacaine (0.5%) was used as a topical analgesic. Genteal was applied under a glass coverslip to keep the cornea lubricated. An incision was made through the sclera below the ora serrata with a 30G needle and ˜1 μl of solution was injected into the vitreous with a blunt-ended 33G Hamilton syringe. After injection, the antibiotic tobramycin (0.3%) was applied to the eye. Final drug concentrations after intravitreal injection were: all-trans retinoic acid (ATRA, 100 nM), liarozole (100 μM), diethylaminobenzaldehyde (DEAB, 20 μM), citral (50 μM), BMS-493 (500 nM), and retinaldehyde (1 μM). The above values correspond to the final concentration in the eye after injecting 1 μl of drug accounting for a 5-fold dilution. An injection of PBS including 1% DMSO was used as vehicle control.
(§2) Yo-PRO-1 Loading Assay. After dissection, retinas were cut into thirds and mounted on a windowed nitrocellulose filter paper. Retinas were treated with 200 nM Yo-PRO-1 (Life Technologies) in oxygenated ACSF for 15 minutes, followed by treatment and then treated with nuclear ID (Enzo Life Sciences) at a 1:500 dilution for 3 minutes. ACSF was perfused continuously at 3 ml/min for a period of 5 minutes to wash away excess dye. In experiments employing TNP-ATP (200 μm), the retinas was pretreated with the compound for ten minutes before beginning YO-PRO-1 treatment.
(§3) Image analysis. All image analysis was performed using ImageJ or Fiji software (55,56). Yo-PRO-1 loading assay, ROIs were manually selected using the nuclear-ID channel based upon morphological characteristics. This was performed after computationally flattening the retina by performing a maximum Z projection onto a single plane. Following this, a background subtraction was performed with a rolling radius of 50 pixels. Cells identified as vascular endothelial cells or pericytes were not included in the analysis. This was confirmed using transillumination. A threshold for YO-PRO-1 loading was established by measuring the level of autofluorescence of untreated retinas in each channel and finding a baseline value with +2SD being the threshold for a YO-PRO-1 positive cell. Nuclear-ID was used to count the total number of cells within a field of view. The percentage of cells above the threshold was then calculated for comparison. For analysis of RARE double reporter virus assay, ROIs were manually selected on the RFP channel first and then superimposed to the GFP channel. Single cell values for both RFP and GFP were filtered by using a RFP minimum threshold established in naive unlabeled retinas.
(§4) Injections. Intravitreal injections: Adult mice and rats were intravitreally injected with drugs or viruses. Before injection, animals were anesthetized with isoflurane (2%) and their pupils were dilated with tropicamide (1%) and phenylephrine (2.5%). Proparacaine (0.5%) was used as a topical analgesic. Genteal was applied under a glass coverslip to keep the cornea lubricated. An incision was made through the sclera below the ora serrata with a 30G needle. Solutions were injected into the vitreous with a blunt-ended 33G Hamilton syringe. After injection, the antibiotic tobramycin (0.3%) was applied to the eye. Final drug concentrations (after 5-fold dilution in the vitreous) were: 100 nM all-trans retinoic acid (ATRA), 100 μM liarozole (24), 20 μM diethylaminobenzaldehyde (DEAB) (28,93), 50 μM citral, 500 nM BMS 493 (85), 1 μM retinaldehyde, and vehicle comprising of 1× phosphate buffered saline (PBS) containing 1% dimethyl sulfoxide (DMSO). Intravitreal injections were performed using AAV2 serotype only. WT and rd1 mice were injected with the RAR-reporter virus or the RARDN virus, at age 1-1.5 month-old. WT and s334ter rats were injected with the RAR-reporter virus at age 3-4 month-old. Final volume of injections was 1-1.5 μL for mice and 5 μL for rats. […]

A further data set relates to RAR. Nature of the data set: RAR dual fluorescent reporter (RARE-SV40-GFP / CMV-RFP) in HEK293 cells. The class given is cell-based, human.
The test system of data set [1] is retinoic acid receptor β (RARβ). Nature of the data set: Immunolabeling of RARβ in retinal cross-sections after intravitreal injection. It is filed as in vivo, mouse. The following applies: 5-6 days after intravitreal ATRA 100 nM versus vehicle.
Experimental: The same procedure was carried out for detection of RARβ in mouse retinas following injection of vehicle or ATRA. Slides were incubated with a primary rabbit anti-RARβ antibody (ab53161, Abcam) and detected using an Alexa Fluor-488 conjugated goat anti-rabbit secondary antibody (Life Technologies). […] Retinas were collected 5-6 days following injection with vehicle, ATRA, or ATRA and Liarozole.
Imaging and Analysis. […] RARE double reporter virus in rats, RARb immunolabeling and TUNEL assay were imaged using a Laser Scanning Confocal Microscope (LSM 780 NLO, Zeiss), using Zen software and default configuration for RFP, GFP, AF488 and nuclear-ID detection.
Data set [2] deals with retinal neurons (photoreceptors). Nature of the data set: TUNEL assay after intravitreal injection. It is filed as in vivo, mouse. Particulars: WT, 5-6 days after intravitreal injection, ATRA 100 nM. The source says: Immunolabeling and TUNEL assay. S334ter rat retinas infected with the RARE double reporter were dissected, fixed and frozen, as previously described (54). The tissue was cut in 14 μm thick cross-sections using a Leica cryostat. Immunocytochemical solution (ICC) was composed of standard 1×PBS (Gibco), 2.5% BSA (Sigma) and 0.1% Triton (Sigma). The tissue was blocked using ICC solution supplemented with unconjugated rabbit anti-mouse secondary antibody (Life Technologies) at RT for 1 hr. Slides were incubated with primary mouse anti-GFP antibody (#JL8, Clontech), with no RFP cross-reactivity, at 4° C. ON. An Alexa Fluor-488 conjugated goat anti-mouse secondary antibody (Life Technologies) was used at RT for 1 hr in the dark. The same procedure was carried out for detection of RARβ in mouse retinas following injection of vehicle or ATRA. Slides were incubated with a primary rabbit anti-RARβ antibody (ab53161, Abcam) and detected using an Alexa Fluor-488 conjugated goat anti-rabbit secondary antibody (Life Technologies). TUNEL assay (In Situ Cell Death Detection Kit, Roche) was carried out per manufacturer's instructions. Retinas were collected 5-6 days following injection with vehicle, ATRA, or ATRA and Liarozole.
TUNEL assay. TUNEL assay (In Situ Cell Death Detection Kit, Roche) was carried out per manufacturer's instructions. […]

A further data set concerns RGCs in rd1 retina. Description: YO-PRO-1 loading assay (dye permeability of RGCs) in rd1 retina after intravitreal injection. It is filed as in vivo, mouse. Here is the method: as §1, §2, §3, §4

“Also recorded” adds a separate entry of the source.

As for `CC1=C(/C=C/C(C)=C/C=C/C(C)=C/C(=O)O)C(C)(C)CCC1` [ATRA, all-trans retinoic acid], in the data set with RGCs in WT retina (WT mice, 3-7 days after intravitreal injection, versus vehicle), the “increase of YO-PRO-1 labeling” value amounted to 2 fold. The “percentage of YO-PRO-1 positive cells” value with RGCs in WT retina (WT mice, intravitreal injection 3-7 days before, ATRA 100 nM, liarozole 100 μM, retinaldehyde 1 μM, DEAB 20 μM, mean±SEM) was 15.80±3.10%. Moreover, the “reversibility of ATRA-induced YO-PRO-1 loading” value with RGCs in WT retina (WT retina, intravitreal ATRA 100 nM) is recorded as “reversible; also recorded: disappeared 6 weeks after injection”. Also, in the data set with RGCs in WT retina (WT retina, substance injected intravitreally alone), the “Yo-Pro-1 labeling of WT-RGCs, result in words” value is given as “significantly increased the fraction of cells incorporating Yo-Pro-1”. In addition, in the data set on RAR (HEK293, ATRA 1 μM, 48 hrs), the “GFP expression of the RAR reporter” value is reported as “significant increase in GFP expression only following ATRA treatment; also recorded: induced GFP expression”. Further, in the data set on RAR (HEK293, different doses and times of ATRA, with 100 μM liarozole), the “increase in GFP to RFP ratio” value is “dose- and time-dependent”. The “RARβ level in RGCs / ganglion cell layer” value in data set [1] is “significant increase in RARβ; also recorded: upregulation of the β-subunit of RAR”. In data set [2], the “cell death / toxicity (TUNEL)” value is listed as “does not cause retinal neuron degeneration; also recorded: non-toxic; also recorded: no cell death”.
With `CC1(C)CC=C(C#Cc2ccccc2)c2cc(/C=C/c3ccc(C(=O)O)cc3)ccc21` [BMS-493], the “percentage of YO-PRO-1 positive cells, ATRA-induced labeling with blocker” value with RGCs in WT retina (WT mice injected with ATRA, TNP-ATP bath-applied ex vivo or BMS-493 co-injected, mean±SEM) is given as 5.74±1.54%. Besides, in the data set on RGCs in rd1 retina (rd1, intravitreal injection, compared to vehicle-injected), the “Yo-Pro-1 labeling of rd1-RGCs, result in words” value is on record as “reduced Yo-Pro-1 labeling in rd1 to WT levels”. Further, the “percentage of YO-PRO-1 positive cells (fraction of RGC nuclei labeled)” value with RGCs in rd1 retina (rd1 mice, intravitreal injection, measured 3-7 days after, BMS-493 500 nM, DEAB 20 uM, citral 50 uM, mean±SEM) is 6.13±1.43%.

The values above are taken from patent US20240398738A1, “MANIPULATION OF THE RETINOIC ACID SIGNALING PATHWAY” (THE REGENTS OF THE UNIVERSITY OF CALIFORNIA, priority 2017, published 2024).
